Experiments:
[1] = test system: HiTox strains of yeast expressing human alpha-synuclein; assay: Yeast growth toxicity assay, HiTox strain; type: cell-based
Experimental: (§1) Yeast cells were grown in synthetic complement (SC) media containing 6.7 g/L yeast nitrogen base without amino acids, 5 g/L ammonium sulfate supplemented with 2 g/L SC. Media was autoclaved and the carbon source (8% raffinose or galactose) was added to a final concentration of 2%.
(§2) Four fresh single colonies of the Hitox strain and its respective control strain were inoculated from SC-2% glucose plates into 5 mL SC-2% raffinose and incubated overnight with shaking (200 rpm) at 30° C. After ≈20 h, overnight cultures were diluted to OD 0.5 and 2 μL of the yeast cultivation was added to 78 μL drug containing media to a final optical density of 0.0125 in a 384-well microplate. 2-HP was diluted in SC-2% raffinose/galactose and tested at different concentrations (1-100 mM). Finally, the plates are measured in a microplate reader (TECAN™ Infinite M200Pro), at an interval of 10 minutes during 72 h at 30° C. Yeast growth phenotyping was performed as previous described (Jung et al. 2015). Final biomass was corrected using the GATHODE software (Jung et al., 2015). The OD600 at 48 h was taken for the quantification.

[2] = test system: control strain; assay: Yeast growth toxicity assay, control strain; type: cell-based
Experimental: as §1, §2

[3] = test system: enteric neurons; assay: Enteric neuron cell viability (MTT) assay; type: cell-based; details: 24 h treatment, MTT (FIG. 5)
Experimental: Enteric neurons were cultured in differentiation medium, consisting on Neurobasal (Invitrogen, 21103049) supplemented with 1:200 N2 (Invitrogen, 17502048), 1:100 L-Glutamine (Invitrogen, 25030-024), 1:100 B-27 without Vitamin A (Life Technologies, 12587-010), 1:100 Penicillin/Streptomycin (Invitrogen, 15140122), 25 ng/mL GDNF (Peprotech, 450-10) and 100 μM Ascorbic Acid (Sigma, A5960). Cells were cultured for 21 days in a 6-well plate, then detached with Accutase (Sigma, A6964), and replated into a 96-well plate. Cells were maintained under differentiating conditions until day 31, when they were treated with increasing concentrations of 2-hydroxypyridine (Sigma, H56800). Tested concentrations were as follows: 1 μM, 3 μM, 6 μM, 10 μM, 30 μM, 60 μM, 100 μM, 300 μM, 600 μM, 1 mM and 3 mM.
2-Hydroxypyridine was reconstituted to 10 mM in the differentiation medium described above.
Cells were treated for 24 h, then cell viability was assessed performing a Tetrazolium (MTT) assay. Thiazolyl Blue tetrazolium Bromide (Sigma, M5655) was reconstituted to a 5 mg/mL solution in differentiation media and filtered. 10 μL of the solution were then added to every well containing 100 μL of media. Plate was incubated for 2 h in a normal incubator (37° C., 5% CO2). […] Cells were disaggregated by pipetting vigorously and absorbance was read at 570 nm, using the microplate Cytation 5M reader (Biotek).

[4] = target: T1, alpha-synuclein (Homo sapiens, UniProt P37840); assay: Alpha-synuclein aggregation; details: in contact with alpha-synuclein
T1 construct: expressed in transfected cells; host or cells: HiTox yeast strains, galactose-inducible expression
Experimental: The aggregation of alpha-synuclein is the key molecular hallmark of PD.
The following abbreviations have the meaning given in brackets: α-Syn (alpha-synuclein), α-Syn-F (fibrillary alpha-synuclein, i.e. alpha-synuclein aggregations), Hoechst (DNA staining), TUJ1 (general neuronal marker), TH (tyrosine hydroxylase) and CC3 (cleaved caspase 3 staining, i.e. cell death marker, showing toxicity).
Cells fixed in 4% paraformaldehyde (Merck Millipore, 1004965000) for 15 min at RT and then washed 3× for 5 min with PBS at RT. Prior to immunostaining, a permeabilization step was performed using 0.05% Triton-X100 solution in PBS for 10 min at 4° C. Cells were then blocked for 1 h at RT with 10% FBS in PBS. Incubation with α-synuclein antibody (NOVUS biologicals, NBP1-05194, 1:1000), α-synuclein filament antibody (Abcam, ab20953, 1:5000) and TUJ1 (Millipore, AB9354, 1:600) was done overnight at 4° C. in blocking buffer. The following day, cells were washed with PBS 3× for 5 min at RT. Then, incubation with the corresponding secondary antibodies, Alexa Fluor anti-chicken 488 (Invitrogen, A-11039, 1:1000), Alexa Fluor anti-mouse IgG1 647 (Invitrogen, A-21240, 1:1000) and Alexa Fluor anti-rabbit 568 (Invitrogen, A11036, 1:1000) was performed for 2 h at RT in blocking buffer. Hoechst 33342 solution (Invitrogen, 62249, 1:1000) was added during this step to stain the nuclei. […]

[5] = test system: IL-1b mRNA expression; assay: IL-1b mRNA expression (qPCR) in murine BMDM model; type: cell-based; details: 10 mM 2-HP, normalized to β-actin, relative to 0 mM
Experimental: The inventors have tested whether 2-HP can act as signal 1 in the activation of the NLRP3 inflammasome in murine bone-barrow derived macrophages (BMDMs). NLRP3 inflammasome activation is thought to play a role in the pathogenesis of neurodegenerative disorders, and increased levels of this inflammasome and of the related cytokine IL-1b have been detected in Parkinson's patients (Guan & Han, 2020). In these experiments, the cells were grown in BMDM growth media and treated with 2-hydroxypyridine (2.5 and 10 mM) for up to 72 hours. Inflammasome activation was evaluated with qPCR for IL-1b expression (normalized to β-actin), considering the fold change relative to 0 mM 2-HP of each time point. There was a 3.2-fold increase in IL-1b mRNA after 3 hours of 10 mM 2-HP treatment, and 1.5-fold increase after 24 hours (FIG. 8).

[6] = test system: wildtype mice; assay: Adhesive removal test after injection into the brain; type: in vivo; details: higher 2-HP concentrations, 15 days post-injection, vs PBS
Experimental: The in vivo work testing for effects of 2-HP in a mouse model lead to results from a small-scale 15-day experiment. In this experiment, 2-HP was injected at several concentrations (5, 50 and 100 mM) into the brain of transgenic mice overexpressing human alpha-synuclein, and of wildtype control mice.

[7] = test system: transgenic mice (Thy1-Syn14 males); details: mouse, in vivo
Experimental: Newly formed oligomeric forms are then propagated to the CNS via the vagus nerve.
To control toxicity and set an upper threshold level for the chronic exposure study, the ideal concentration in the animals' drinking water (ad libitum) is determined by testing three different concentrations. As reference, the LD50 value determined in rats is used as a threshold for an entire day. The animals, of an average weight of 28 g, take in […] of 2-HP per day. The second factor to account for is the volume of water a C57BI6/j mouse drinks per day, which varies between 5 mL and 8 mL. With an […] water intake per day, the maximum concentration the inventors use is 695 μg/mL of dissolved 2-HP. However, lower doses are aimed for:
These 3 doses are tested on a total of 48 animals. 24 wild-type and 24 transgenic animals are distributed amongst 12 groups. It is essential to have both genotypes in the study, since it cannot be foreseen how human wild-type alpha-synuclein and 2-HP interact in an in vivo model. Further, short-term and long-term effects are analysed. Additionally, this allows to proceed with the post-mortem analysis of the 14 days cohort, allowing to gather information of the early effects of 2-HP on an in vivo system. The following design is used:
In the in-life phase, all animals are checked regularly. Overall behavior in the cage is checked daily. […]

[8] = test system: rats; details: oral administration; cited from earlier work
[9] = control, higher concentration of 2-HP (FIG. 3C)

## Oc1ccccn1 [2-HP, 2-hydroxypyridine]
[1]; HiTox strains of yeast expressing human alpha-synuclein
  dose at which selectively toxic to transgenic alpha-synuclein expressing yeast: 1 mM
[1]; in presence of galactose, HiTox strains (FIG. 3B)
  toxicity (growth), alpha-synuclein induced: A toxic dose-response can be observed in the HiTox strains
[1]; in presence of raffinose (FIG. 3A)
  toxicity (growth), alpha-synuclein not induced: A toxic dose-response can be observed
[2]; [9]
  lag time of growth curve: prolonged
  yield of growth curve: unaffected
[2]; in presence of galactose, control strain (FIG. 3B)
  toxicity (growth), control strain: not in the control strain
[3]
  LD50: around 3 mM
[4]
  effect on alpha-synuclein aggregation: promotes aggregation
[5]; 3 hours
  increase in IL-1b mRNA: 3.2 fold
[5]; 24 hours
  increase in IL-1b mRNA: 1.5 fold
[6]
  performance in adhesive removal test (sensorimotor function): perform worse
[7]
  alpha-synuclein in ENS: increased accumulation up to aggregation of alpha-synuclein
  motor symptoms and PD-like pathology: exacerbation of motor symptoms
[8]
  LD50: 124 mg/kg
